Experimental data taken from ChEMBL document CHEMBL1149567, “Synthesis and pharmacological evaluation of condensed heterocyclic 6-substituted-1,2,4-triazolo[3,4-b]-1,3,4-thiadiazole derivatives of naproxen” (Bioorg Med Chem Lett, 2007).

Experiments:
Rattus norvegicus [1] = experiment: Analgesic activity in rat at 30 mg/kg, po; conditions: read-out: Inhibition
Rattus norvegicus [2] = experiment: Antiinflammatory activity against carrageenan-induced paw edema in rat at 30 mg/kg, po after 4 hrs; conditions: read-out: Inhibition
Rattus norvegicus [3] = species: Rattus norvegicus; experiment: Effect on lipid peroxidation in rat gastric mucosa assessed as malondialdehyde level per 100 mg of tissue; type: functional, organism-based
Rattus norvegicus [4] = experiment: Toxicity assessed as ulcerogenic activity in po dosed rat; type: organism-based; conditions: in vivo
Rattus norvegicus [5] = experiment: Antiinflammatory activity against carrageenan-induced paw edema in po dosed rat after 4 hrs; type: functional
Rattus norvegicus [6] = experiment: Analgesic activity in po dosed rat; type: functional

Row | SMILES | inhibition in vivo at 30 mg/kg (Rattus norvegicus [1]) [%] | inhibition in vivo at 30 mg/kg (Rattus norvegicus [2]) [%] | Activity (Rattus norvegicus [3]) [nmol] | UI (Rattus norvegicus [4]) | Inhibition (Rattus norvegicus [5]) [%] | Inhibition (Rattus norvegicus [6]) [%]
1 | COc1ccc2cc([C@H](C)C(=O)O)ccc2c1 [NAPROXEN] | 73.5 | 81.8 | 9.04 |  |  | 
2 | COc1ccc2cc(C(C)c3nnc4sc(-c5ccc(Cl)cc5Cl)nn34)ccc2c1 (stereo unspecified) |  |  | 5.63 | 0.75 | 68.93 | 37.2
3 | COc1ccc2cc(C(C)c3nnc4sc(-c5ccc(N)cc5)nn34)ccc2c1 (stereo unspecified) |  |  | 5.85 | 0.833 | 78.02 | 58.1
4 | COc1ccc2cc(C(C)c3nnc4sc(Nc5ccc(F)cc5)nn34)ccc2c1 (stereo unspecified) |  |  |  |  | 40.14 | 
5 | COc1ccc2cc(C(C)c3nnc4sc(-c5ccccc5N)nn34)ccc2c1 (stereo unspecified) |  |  |  |  | 54.54 | 
6 | COc1ccc2cc(C(C)c3nnc4sc(-c5ccccc5)nn34)ccc2c1 (stereo unspecified) |  |  | 4.86 | 0.5 | 81.05 | 89.5
7 | COc1ccc2cc(C(C)c3nnc4sc(-c5ccc(Cl)cc5)nn34)ccc2c1 (stereo unspecified) |  |  | 5.27 | 0.583 | 80.3 | 26.7
8 | CCCCNc1nn2c(C(C)c3ccc4cc(OC)ccc4c3)nnc2s1 (stereo unspecified) |  |  |  |  | 40.9 | 
9 | COc1ccc2cc(C(C)c3nnc4sc(Nc5ccc(C)cc5C)nn34)ccc2c1 (stereo unspecified) |  |  | 6.11 | 0.833 | 76.51 | 33.3
10 | COc1ccc2cc(C(C)c3nnc4sc(COc5ccc(Cl)cc5Cl)nn34)ccc2c1 (stereo unspecified) |  |  | 5.38 | 0.667 | 78.02 | 80.3
11 | COc1ccc2cc(C(C)c3nnc4sc(Nc5ccccc5)nn34)ccc2c1 (stereo unspecified) |  |  |  |  | 43.93 | 
